Consider 13 molecules from publication PMC5824666, “The P-type ATPase inhibiting potential of polyoxotungstates” (Metallomics, 2018).

Broadly, the IC50 is the concentration needed to halve the response being measured.

Assay [1] deals with T1, SR Ca^2+-ATPase (Oryctolagus cuniculus, UniProt P04191).
T1 construct: Isolated sarcoplasmic reticulum vesicles (SRVs), prepared from rabbit skeletal muscles as described elsewhere; from tissue; host or cells: rabbit skeletal muscle, sarcoplasmic reticulum vesicles
T1 sequence (P04191 1-994 isoform P04191-2): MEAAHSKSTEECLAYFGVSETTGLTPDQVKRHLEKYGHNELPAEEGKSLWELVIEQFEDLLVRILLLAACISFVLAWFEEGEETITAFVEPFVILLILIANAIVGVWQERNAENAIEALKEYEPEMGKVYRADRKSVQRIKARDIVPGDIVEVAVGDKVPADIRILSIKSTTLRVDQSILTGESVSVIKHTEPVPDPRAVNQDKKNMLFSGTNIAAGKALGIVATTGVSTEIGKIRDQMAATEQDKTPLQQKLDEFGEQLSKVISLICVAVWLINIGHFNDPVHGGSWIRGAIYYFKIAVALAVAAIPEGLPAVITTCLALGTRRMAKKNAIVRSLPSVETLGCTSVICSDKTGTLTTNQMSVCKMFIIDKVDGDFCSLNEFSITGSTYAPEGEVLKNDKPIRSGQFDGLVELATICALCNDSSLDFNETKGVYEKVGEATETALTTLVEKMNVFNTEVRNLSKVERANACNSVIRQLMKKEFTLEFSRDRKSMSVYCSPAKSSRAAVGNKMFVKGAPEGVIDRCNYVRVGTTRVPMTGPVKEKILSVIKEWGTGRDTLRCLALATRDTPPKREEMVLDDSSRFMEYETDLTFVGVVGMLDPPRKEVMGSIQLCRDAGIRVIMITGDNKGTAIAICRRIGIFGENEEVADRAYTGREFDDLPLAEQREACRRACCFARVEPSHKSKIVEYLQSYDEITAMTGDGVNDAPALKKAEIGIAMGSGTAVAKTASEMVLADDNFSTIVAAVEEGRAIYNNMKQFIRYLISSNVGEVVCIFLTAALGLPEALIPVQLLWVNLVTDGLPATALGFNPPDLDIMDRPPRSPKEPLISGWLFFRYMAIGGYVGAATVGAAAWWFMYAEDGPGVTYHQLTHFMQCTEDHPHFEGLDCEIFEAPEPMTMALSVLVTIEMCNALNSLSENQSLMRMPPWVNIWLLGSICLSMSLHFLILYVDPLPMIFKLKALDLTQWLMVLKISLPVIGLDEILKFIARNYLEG
The experiment in a line: Steady-state SR Ca2+-ATPase ATP hydrolysis, coupled pyruvate kinase/lactate dehydrogenase assay. It counts as biochemical, rabbit. The conditions noted are these: for IC50: SR vesicles from skeletal muscle, 25 °C, 2.5 mM ATP, calcimycin 4% (w/w); for Type of inhibition of Ca^2+-ATPase: Lineweaver-Burk, TeW6 at 100 μM. As to the method:
All reagents used for the preparation of the calcium pump vesicles were purchased from Sigma-Aldrich (Portugal). Isolated sarcoplasmic reticulum vesicles (SRVs), prepared from rabbit skeletal muscles as described elsewhere,[33] were suspended in 0.1 M KCl, 10 mM HEPES (pH 7.0), diluted 1 : 1 with 2.0 M sucrose and frozen in liquid nitrogen for storage at –80 °C. The protein concentration was determined spectrophotometrically at 595 nm in the presence of 0.125% of sodium dodecyl sulphate (SDS) by Bradford method with bovine serum albumin as a standard. The percentage of each protein present in the SRV preparations was determined by densitometry analysis of SDS-PAGE (7.5% acrylamide) protein bands. The SR Ca^2+-ATPase constituted at least 70% of the total protein amount in the SR-vesicles according to SDS-PAGE. The sarcoplasmic reticulum Ca^2+-ATPase-1 (SERCA-1) was the predominant isoform in our SR preparations.[42]
Steady-state assays of the SR Ca^2+-ATPase were measured spectrophotometrically at 25 °C using the coupled enzyme pyruvate kinase/lactate dehydrogenase assay (Scheme 1) as described elsewhere.[42] Briefly, after the addition of the enzymes (pyruvate kinase and lactate dehydrogenase) and the substrate phosphoenolpyruvate to the medium, the experiment was initiated by adding NADH (0.25 mM) and the vesicles containing Ca^2+-ATPase (10 μg mL^–1).
ATP (2.5 mM) was added and the absorbance was recorded for about 1 minute (basal activity). Afterwards, the calcium ionophore calcimycin 4% (w/w), which releases again the Ca^2+ ions, that were pumped in by the ATPase, was added and the decreasing NADH absorbance at 340 nm was measured for about 2 minutes (uncoupled ATPase activity). This was done to increase the ATPase activity (due to the ionophore-mediated impairment of the Ca^2+ gradient) in order to better study the effect of the inhibitors and to ensure that the SR Ca^2+-ATPase vesicles are not leaky. For the experiments including POTs, freshly prepared POT solutions (10 mM and 1 mM for all POTs except for Se2W29 1 mM and 0.1 mM) were added to the medium prior to the addition of SR Ca^2+-ATPase. The ATPase activity and its inhibition was measured taking into account the decrease of the OD (optical density) per minute in the absence (100%) and in the presence of the investigated POTs.[33] The detection system was not affected by the POTs themselves (not even at their highest concentrations), which was confirmed by a rapid decrease in absorbance at 340 nm upon addition of 40 μM ADP after the assay. All experiments were performed at least in triplicates. The inhibitory power of the investigated POTs was evaluated by determining the respective IC50 value, that is, the POT concentration needed to induce a 50% inhibition of the Ca^2+-ATPase enzyme activity.

The test system of assay [2] is Na^+/K^+-ATPase from basal membrane of opercular epithelium. The experiment in a line: Epithelial short circuit current (Isc) in Ussing chambers ex vivo, POT added basolaterally. The assay is classed as cell-based, killifish (F. heteroclitus). The conditions noted are these: basolateral; for Maximum inhibition: % of basal Isc. The source says: Epithelial tissues can transport ions and generate a transepithelial voltage termed “active transport potential”, which is caused by the asymmetric distribution of ion channels and transporters on the apical and basolateral membranes. The net movement of charges from the apical to the basolateral side (and vice versa) generates a voltage equal to the voltage differences between the apical and basolateral membranes. Ex vivo, the short circuit current (Isc) is an accurate reflection of the secretory/absorptive capacity of the tissue when short-circuited. In the opercular epithelium of killifish used for our studies, Isc is a direct measure of apical chloride secretion mediated by chloride channels, which relies on an intact basolateral Na^+/K^+-ATPase function.[43],[44]
Methodology for the ex vivo opercular epithelia preparation followed our current methods.[45] Fish were anaesthetized with 2-phenoxyethanol (1 : 2000 v/v), sacrificed by decapitation and the cranium was cut longitudinally. The gills and other tissue remains were removed carefully and the epithelial skin covering the opercular bone were dissected out and transferred to fresh-gassed saline (99.7 : 0.3 O2/CO2) with the following composition (all values in mM): NaCl, 160; MgSO4, 0.93; NaH2PO4, 3.0; CaCl2, 1.5; NaHCO3, 17.85; KCl, 3.0; glucose, 5.5; HEPES (pH 7.8), 5.0. The epithelia were overlaid onto a thin bore polythene net, protected between two parafilm gaskets and pinned over the circular aperture of a tissue holder (P2410, 0.20 cm^2, Physiological Instruments, San Diego, USA), with the perimeter area lightly greased with vacuum silicone to minimize tissue edge damage. The mounted tissue was positioned between the two halves of the Ussing chamber (P2400, Physiological Instruments, San Diego, USA) with 4 mL of gassed saline at 22 °C and gassed with a 99.7 : 0.3 O2/CO2 mix to provide oxygenation, good mixing by gas lift and pH control (pH = 7.8).
The preparations were left to stand for at least 60 min or until a steady basal measurement of bioelectrical variables was achieved. Measurement of the short circuit current (Isc, μA cm^–2) was performed at symmetric conditions under voltage clamp to 0 mV. The open circuit potential (Vt, mV) and Isc were monitored by means of Ag/AgCl electrodes connected to the chambers by 3 mm bore agar bridges (1 M KCl in 3% agar). Clamping of epithelia to 0 mV and recording of Isc was performed by VCC600 voltage clamp amplifiers (Physiologic Instruments, San Diego, USA). Epithelial resistance (Rt, Ω cm^2) was manually calculated (Ohm's law) using the current deflections induced by bilateral 1 mV pulses of 3 s every minute. Bioelectrical data were continuously digitized through a Lab-Trax-4 (WPI, Sarasota, US) onto a Macbook laptop using Labscribe3 Software (Iworks systems, Dover, US). Upon signal baseline stabilization, freshly prepared POT solutions were added to the basal or the apical side of the chamber (Fig. 2) and the effects on the Na^+/K^+-ATPase from basal membrane or the chloride channel forming the apical membrane were followed for 60 to 90 minutes. The maximum inhibitory effect (in %) of the POTs on the ATPase activity and the effective time (ET50), which is the time necessary to reach 50% of the maximum effects (in minutes), was determined by measuring the % decrease of short circuit current (Isc, μA cm^–2) in the absence (100% activity) and presence of the POTs. All the experiments were performed at least in triplicates. Calculations of the ET50 and maximum effect values were performed using GraphPad Prism version 6.00 for Macintosh (GraphPad Software, La Jolla California USA).

In assay [3] the target is T1, SR Ca^2+-ATPase. Details: method as in PMID 22178669. As to conditions: cited from earlier work; for IC50: previously reported; for Type of inhibition of Ca^2+-ATPase: regarding the natural ligand MgATP.
A further assay addresses Na^+/K^+-ATPase. The conditions noted are these: previous studies; cited from earlier work.

Values joined by “and” are separate entries in the source; they are usually repeats but may differ in a detail not shown here. Identical values can stand only once. Like-named read-outs stand apart in the source and are kept apart here.

As to K14[As2W19O67(H2O)]·23H2O, the IC50 at SR Ca^2+-ATPase [1] was determined as 28 µM. The “Effect on ATPase activity after 30 minutes” value (“Effect on ATPase activity” below) in assay [2] (10 μM compound) is given as “no effect”.

With Na12[H4W22O74]·50H2O, the IC50 at SR Ca^2+-ATPase [1] came out at 68 µM. In addition, the “Effect on ATPase activity” value in assay [2] (10 μM compound) is recorded as “no effect”.

For `[O]=[V]([O-])([O-])[O][V]1(=[O])[O][V]2(=[O])[O][V](=[O])([O][V](=[O])([O-])[O-])[O][V](=[O])([O]2)[O][V]2(=[O])[O][V](=[O])([O][V](=[O])([O-])[O-])[O][V](=[O])([O]1)[O]2` (stereo not shown) [V10, decavanadate], on SR Ca^2+-ATPase [3], the IC50 is 15 µM and the “Type of inhibition of Ca^2+-ATPase” value is reported as “non-competitive”.

Take K12[α-H2P2W12O48]·16H2O: the IC50 at SR Ca^2+-ATPase [1] stood at 11 µM. The “Effect on ATPase activity” value in assay [2] (10 μM compound) is on record as “no effect”.

`C[C@@H]1O[C@@H](O[C@H]2C[C@@H](O)[C@]3(CO)[C@H]4[C@H](O)C[C@]5(C)[C@@H](C6=CC(=O)OC6)CC[C@]5(O)[C@@H]4CC[C@]3(O)C2)[C@H](O)[C@H](O)[C@H]1O` [Ouabain, reference compound]: in assay [2] (10 μM compound), the “ET50 (time to reach 50% of the maximum effect)” value was 3.2 ± 0.2 min and 3.2 min and 3.2 (10 μM) min; the Maximum inhibition is given as 100%.

As for decaniobate [Nb10], on SR Ca^2+-ATPase [3], the IC50 is 35 µM and the “Type of inhibition of Ca^2+-ATPase” value was “non-competitive”.

On to K9(C2H8N)5[H10Se2W29O103]·30H2O, for which, in assay [2] (1 μM compound), the “ET50 (time to reach 50% of the maximum effect)” value is listed as 6.5 (1 μM) min and the Maximum inhibition is given as 14%.

For the molecule Na10[A-α-SiW9O34]·16H2O, the IC50 on SR Ca^2+-ATPase [1] came to 16 µM. Besides, the “Effect on ATPase activity” value in assay [2] (10 μM compound) was “no effect”.

As to Na9[B-α-AsW9O33]·27H2O, at SR Ca^2+-ATPase [1], the concentration for half-maximal inhibition (IC50) came to 20 µM. For the same molecule, in assay [2] (10 μM compound), the “ET50 (time to reach 50% of the maximum effect)” value is 8.5 min and 8.5 (10 μM) min; the Maximum inhibition was found to be 66%.

Regarding `[O]=[W](=[O])([OH])[OH]` [orthotungstate], the values for the half-inhibitory concentration (IC50) on Na^+/K^+-ATPase and at SR Ca^2+-ATPase [3] were 1500 µM and 400 µM, respectively.

On to K6[α-P2W18O62]·14H2O, for which the “Type of inhibition of Ca^2+-ATPase” value at SR Ca^2+-ATPase [1] was “mixed type of inhibition”. The “ET50 (time to reach 50% of the maximum effect)” value in assay [2] (0.5 μM compound) was 8.2 (0.5 μM) min; in assay [2] (1 μM compound), 6.5 (1 μM) min; in assay [2] (10 μM compound) it was 4.3 (10 μM) min. Moreover, the Maximum inhibition in assay [2] (0.5 μM compound) is recorded as 86%; in assay [2] (1 μM compound, 1 µM), 99%; in assay [2] (10 μM compound) it was about 100%.

Turning to K6H2[TiW11CoO40]·13H2O [CoW11Ti], in assay [2] (10 μM compound), the “ET50 (time to reach 50% of the maximum effect)” value is reported as 10 (10 μM) min and the Maximum inhibition is given as 75%.

As for Na6[TeW6O24]·22H2O, at SR Ca^2+-ATPase [1], the “Type of inhibition of Ca^2+-ATPase” value is reported as “mixed type of inhibition” and the IC50 turned out to be 200 µM. In assay [2] (10 μM compound), the “ET50 (time to reach 50% of the maximum effect)” value is 60 (10 μM) min and the Maximum inhibition came out at 10%.
